In US20170007727A1, “METHODS OF IMAGING WITH Ga-68 LABELED MOLECULES” (Immunomedics, Inc., priority 2015, published 2017):
Blank lines part the entries; values can stand above or below the compound they belong to. Numbered stars: 1 amine (or outer) side, 2 acyl side, 3 side chain; on linkers, the order of the positions; unused ones are H or OH. Square brackets hold non-standard residues; d marks the D form. Side chains are listed from the residue outwards. Peptide text beside a SMILES is read from it. * marks the point of attachment. DOTA = O=C(O)CN1CCN(CC(=O)O)CCN(CC(=O)*)CCN(CC(=O)O)CC1; NH(2-(imidazol-4-yl)ethyl) = c1ncc(CCN*)[nH]1; Suc = O=C(CCC(=O)[*:2])[*:1]

Tests used:
[1] = complexed with ^177Lu or ^205/206Bi; cited from earlier work
[2] = system: CEA-expressing LS174T tumors; details: mouse, in vivo
Protocol: One or two hours after the injection of the radiolabeled peptide, PET/CT images were acquired and the biodistribution of the radiolabeled peptide was determined. Uptake in the LS174T tumor was compared with that in an s.c. CEA-negative SK-RC 52 tumor.
Experiments were performed in male nude BALB/c mice (6-8 weeks old), weighing 20-25 grams. Mice received a subcutaneous injection with 0.2 mL of a suspension of 1×10^6 LS174T-cells, a CEA-expressing human colon carcinoma cell line (American Type Culture Collection, Rockville, Md., USA).
The percentage-injected dose per gram tissue (% ID/g) was calculated.
LS174T tumors were pretargeted by injecting 1.0, 2.5, 5.0 or 10.0 nmol TF2 (160, 400, 800 or 1600 μg).
In the right flank an s.c. LS174T tumor was induced, while at the same time in the same mice 1×10^6 SK-RC 52 cells were inoculated in the left flank to induce a CEA-negative tumor.
Mice were fasted during 10 hours prior to the injection and anaesthetized and kept warm at 37° C. until euthanasia, 1 h postinjection.

AR42J tumors = assay: Biodistribution in mice with s.c. AR42J tumors; format: in vivo, nude BALB/c mice; details: 2 h p.i.
Protocol: Male nude BALB/c mice (6-8 weeks) were injected subcutaneously in the right flank with 0.2 mL AR42J cell suspension of 10^7 cells/mL. Approximately two weeks after tumor cell inoculation when tumors were 5-8 mm in diameter, 370 kBq ^18F- or ^68Ga-labeled IMP 466 was administered intravenously (n=5). Separate groups (n=5) were injected with a 1,000-fold molar excess of unlabeled IMP 466. One group of three mice was injected with unchelated [Al^18F]. All mice were killed by CO2/O2 asphyxiation 2 h post-injection (p.i.). Organs of interest were collected, weighed and counted in a gamma counter. The percentage of the injected dose per gram tissue (% ID/g) was calculated for each tissue. The animal experiments were approved by the local animal welfare committee and performed according to national regulations.

[3] = Stability of ^18F-labeled IMP 466 in human serum (RP-HPLC); format: in vitro ADME; details: 37° C., 4 h
Protocol: Ten μL of the ^18F-labeled IMP 466 was incubated in 500 μL of freshly collected human serum and incubated for 4 h at 37° C. Acetonitrile was added and the mixture was vortexed followed by centrifugation at 1000×g for 5 min to precipitate serum proteins. The supernatant was analyzed on RP-HPLC as described above.

[4] = molecular target: somatostatin receptors on AR42J cells (rat); assay: apparent IC50, competitive binding on AR42J cells against 111In(DTPA-octreotide), RT 3 h
Chain of somatostatin receptors on AR42J cells (rat) (P30680 whole entry): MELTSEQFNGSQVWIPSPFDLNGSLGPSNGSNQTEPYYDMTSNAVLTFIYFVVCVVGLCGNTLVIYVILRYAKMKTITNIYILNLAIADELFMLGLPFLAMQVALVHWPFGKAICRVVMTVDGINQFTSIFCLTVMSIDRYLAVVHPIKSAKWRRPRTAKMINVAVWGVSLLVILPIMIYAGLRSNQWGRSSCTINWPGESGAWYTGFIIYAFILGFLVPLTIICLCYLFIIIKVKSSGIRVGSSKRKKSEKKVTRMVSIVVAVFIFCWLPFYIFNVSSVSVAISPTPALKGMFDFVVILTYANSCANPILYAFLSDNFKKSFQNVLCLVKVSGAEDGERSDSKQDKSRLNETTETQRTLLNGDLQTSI

RIIα dimers = RIIα dimers (Homo sapiens, UniProt P13861); details: read-out: affinity for RIIα dimers; cited from earlier work
Chain of RIIα dimers (P13861 whole entry): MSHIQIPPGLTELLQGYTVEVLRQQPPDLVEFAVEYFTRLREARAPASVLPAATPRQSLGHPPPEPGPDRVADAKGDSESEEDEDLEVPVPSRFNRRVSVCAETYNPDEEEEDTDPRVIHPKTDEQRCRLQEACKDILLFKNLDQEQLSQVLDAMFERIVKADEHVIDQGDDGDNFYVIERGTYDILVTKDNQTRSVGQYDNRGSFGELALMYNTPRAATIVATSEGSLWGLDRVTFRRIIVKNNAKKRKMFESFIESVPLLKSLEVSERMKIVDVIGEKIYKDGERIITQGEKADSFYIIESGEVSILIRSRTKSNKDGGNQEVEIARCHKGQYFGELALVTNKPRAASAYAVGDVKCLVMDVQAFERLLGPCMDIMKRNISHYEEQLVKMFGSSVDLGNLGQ

Compound: O=C(O)CN1CCN(CC(=O)O)CCN(CC(Cc2ccc([N+](=O)[O-])cc2)N(CC(=O)O)CC(=O)O)CC1 (stereo not drawn) [C-NETA]
stability in serum [1]: up to 14 days

Compound: 17 residue synthetic AD, SEQ ID NO: 8 QIEYLAKQIVDNAIQQA [AKAP-IS]
Kd (RIIα dimers): 0.4 nM

Compound: 115In(DTPA-octreotide) (peptide)
IC50 [4]: 6.3 nM

Now from value to compound:

uptake in the bone [2]: 50.9±11.4 % ID/g | bone uptake (AR42J tumors): 36.9±5.0 % ID/g
Compound: [18F][Al+2] [[Al^18F]]

release of ^18F after incubation in human serum [3]: did not show release of ^18F
Compound: C[C@@H](O)[C@@H]1NC(=O)[C@H](CCCCN)NC(=O)[C@@H](Cc2c[nH]c3ccccc23)NC(=O)[C@H](Cc2ccccc2)NC(=O)[C@@H](NC(=O)[C@@H](Cc2ccccc2)NC(=O)CN2CCN(CC(=O)O)CCN(CC(=O)O)CC2)CSSC[C@@H](C(=O)N[C@H](CO)[C@@H](C)O)NC1=O [Al^18F(IMP 466)]

IC50 [4]: 13 nM
Compound: 69Ga(IMP 466): NOTA-D-Phe-Cys-Phe-D-Trp-Lys-Thr-Cys-Throl complexed with 69Ga (peptide)

time to maximum accretion in the tumor [2]: ≤ 1 h
Compound: NC(=O)[C@@H](CCCCNC(=O)CNC(=O)CCC(=O)NCCc1c[nH]cn1)NC(=O)[C@@H](CCC(=O)O)NC(=O)[C@@H](CCCCNC(=O)CNC(=O)CCC(=O)NCCc1c[nH]cn1)NC(=O)[C@@H](Cc1ccc(O)cc1)NC(=O)CN1CCN(CC(=O)O)CCN(CC(=O)O)CCN(CC(=O)O)CC1 [IMP 288, DOTA-D-Tyr-D-Lys(HSG)-D-Glu-D-Lys(HSG)-NH2] ({DOTA}-[dY][dK]([Gly-Suc-NH(2-(imidazol-4-yl)ethyl)])[dE][dK]([Gly-Suc-NH(2-(imidazol-4-yl)ethyl)])-NH2)

IC50 [4]: 3.6 nM
Compound: Al19F(IMP 466): NOTA-D-Phe-Cys-Phe-D-Trp-Lys-Thr-Cys-Throl complexed with aluminium fluoride (19F) (peptide)
